Experimental data from publication PMC11271582.
“And” between values parts separate entries of the source, which are not always exact repeats. Equal values may be shown once.

Columns and labels:
DENV-2/16681 = test system: DENV-2/16681; parameters: method as in PMID 34671169; details: pan-serotype; cited from earlier work
YFV = details: cited from earlier work
ZIKV = test system: ZIKV; parameters: method as in PMID 34671169; details: cited from earlier work
cells = test system: cells; parameters: method as in Kaptein et al, Nature, 2021; details: at used concentrations; ref Kaptein et al, Nature, 2021; cited from earlier work
DENV NS1-5 polyprotein = DENV NS1-5 polyprotein (Dengue virus type 2, UniProt P29990); experiment: polyprotein processing by western blot (pIRO-D system); details: 35 nM, regardless of the time of addition
[1] = test system: DENV vesicle packets (VPs) formation; experiment: determination of VPs formation (pIRO-D system, TEM) in Huh7/Lunet-T7 cells
Calnexin-HA = target: T1, Calnexin-HA (Homo sapiens, UniProt P27824); experiment: photoaffinity labeling and click labeling on agarose beads (specificity control); format: binding; details: 1 µM, UV 365 nm
T1 construct: expressed in transfected cells
T1 sequence (P27824 21-592): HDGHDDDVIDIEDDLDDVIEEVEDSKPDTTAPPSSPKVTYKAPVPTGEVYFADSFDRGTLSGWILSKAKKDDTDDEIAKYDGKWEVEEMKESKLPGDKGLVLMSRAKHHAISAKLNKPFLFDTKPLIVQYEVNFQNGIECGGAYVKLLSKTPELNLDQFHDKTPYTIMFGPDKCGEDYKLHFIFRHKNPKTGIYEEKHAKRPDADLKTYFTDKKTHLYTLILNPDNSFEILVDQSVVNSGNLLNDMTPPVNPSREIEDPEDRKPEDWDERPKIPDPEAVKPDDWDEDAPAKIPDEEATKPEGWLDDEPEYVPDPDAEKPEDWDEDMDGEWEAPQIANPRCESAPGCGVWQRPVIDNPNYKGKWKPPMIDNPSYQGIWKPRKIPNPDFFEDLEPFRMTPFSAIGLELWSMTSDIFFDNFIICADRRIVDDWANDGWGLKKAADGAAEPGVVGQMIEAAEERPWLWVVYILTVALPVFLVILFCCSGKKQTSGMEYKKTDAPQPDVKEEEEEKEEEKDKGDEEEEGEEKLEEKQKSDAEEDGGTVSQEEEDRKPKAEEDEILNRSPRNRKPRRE

[2] = test system: T2, WT (transient replicon assay, sgDVs-R2A, DENV 2/16681); experiment: microbe, parasite or virus in culture; parameters: species or system Huh7-derived cells (sheet title cut off after 'Hu'); transient DENV-2 replicon assay, inhibition of wild-type replicon replication; details: wild-type replicon, replicate
T2 construct: 16681 wild-type subgenomic reporter replicon sgDVs-R2A

ZIKV NS4B = ZIKV NS4B (Zika virus, UniProt A0A024B7W1); experiment: imaging-based colocalization of click-labeled PAL compound with ZIKV NS4B (pIRO-Z); details: 1 µM, Huh7/Lunet-T7 cells
DENV NS4B and NS3 = DENV NS4B and NS3 (Dengue virus type 2, UniProt P29990); experiment: imaging-based colocalization of click-labeled PAL compounds with DENV proteins (pIRO-D); details: 1 µM; pIRO-D WT, Huh7/Lunet-T7 cells
[3] = test system: protein synthesis (RNA translation) in Huh7/Lunet-T7 cells; experiment: ribopuromycylation assay; format: cell-based, human; details: 200 µg/ml
Protocol: A protocol for the ribopuromycylation method to detect nascent protein synthesis[52] was integrated into the workflow for the determination of VPs formation. In brief, cycloheximide (CHX, 200 µg/ml) was added to cells 30 min before the start of a four-hour treatment with 35 nM JNJ-A07 (or vehicle control) to block de novo protein synthesis. Thereafter, the medium was replaced with DMEMComplete prewarmed to 37 °C, to which puromycin was added at a final concentration of 10 µg/ml. Cells were incubated at 37 °C for 5 minutes and then either fixed for microscopy or lysed for western blot analysis.

DENV-1 or DENV-2 = details: non-human primates; cited from earlier work

Chain of DENV NS4B and NS3 (P29990 2244-2491): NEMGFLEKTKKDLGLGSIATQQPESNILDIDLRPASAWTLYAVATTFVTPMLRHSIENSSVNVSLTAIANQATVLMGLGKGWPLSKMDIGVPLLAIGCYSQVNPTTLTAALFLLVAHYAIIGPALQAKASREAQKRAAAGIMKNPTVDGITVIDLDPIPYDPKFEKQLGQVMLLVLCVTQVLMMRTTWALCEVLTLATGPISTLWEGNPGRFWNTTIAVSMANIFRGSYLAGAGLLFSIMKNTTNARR
Chain of ZIKV NS4B (A0A024B7W1 2270-2520): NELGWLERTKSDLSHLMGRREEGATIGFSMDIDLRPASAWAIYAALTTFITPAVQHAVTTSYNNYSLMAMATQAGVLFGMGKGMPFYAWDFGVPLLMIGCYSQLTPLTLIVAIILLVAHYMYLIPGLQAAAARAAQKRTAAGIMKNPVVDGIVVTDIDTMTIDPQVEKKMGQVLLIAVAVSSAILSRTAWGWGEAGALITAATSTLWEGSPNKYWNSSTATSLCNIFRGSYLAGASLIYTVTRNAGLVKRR
Chain of DENV NS1-5 polyprotein (P29990 2244-2491): as the sequence (P29990 2244-2491) above

## COc1cc(NC(C(=O)N2CCc3ccc(OC(F)(F)F)cc32)c2ccc(Cl)cc2)cc(OCCCC(=O)O)c1 (stereo not shown) [JNJ-A07]
DENV-2/16681
  activity against DENV: nano- to picomolar
YFV
  antiviral activity against YFV lower compared to an average value for a DENV isolate: about 1000 times
ZIKV
  antiviral activity against ZIKV: marginal antiviral activity
cells
  cytotoxicity: not cytotoxic
DENV NS1-5 polyprotein
  effect on polyprotein processing: no apparent effect on polyprotein processing
[1]; 35 nM
  VPE diameter: no effect on VPE diameter
[1]; 35 nM added early, 4 h after transfection
  VPs in time-of-addition experiment: almost complete loss of VPs
[1]; 35 nM added late, 16 h after transfection
  VPE formation efficiency in time-of-addition experiment: reduced to a much lower degree
[1]; 35 nM with CHX 200 µg/ml, compared to CHX only
  VPE decay with protein synthesis blocked: does not accelerate VPE decay
[1]; 35 nM, NS4B resistance mutants
  VPE efficiency: not affected

## C#CCCC1(CCn2cc(C(=O)C(Nc3cc(OC)cc(OCCOC)c3)c3ccc(Cl)cc3OC)c3cc(OC(F)(F)F)ccc32)N=N1 (stereo not shown) [Compound A]
Calnexin-HA
  Cy5.5 labeling of HA-tagged Calnexin: No labeling
[2]; Dengue virus, Experimental series=1
  EC50: 65 nM
[2]; Dengue virus, Experimental series=2
  EC50: 61 nM
[2]; Dengue virus, Experimental series=3
  EC50: 52.9 nM
[2]; Experimental series=1, inhibitor
  EC50: 58 nM and 52 nM
[2]; Experimental series=2, inhibitor
  EC50: 48 nM and 49 nM
[2]; Experimental series=3, inhibitor
  EC50: 68.3 nM and 64.3 nM
ZIKV NS4B
  colocalization of labeled compound with ZIKV NS4B: low-level, albeit significant colocalization
DENV NS4B and NS3
  colocalization of labeled PAL compound with NS4B (and NS3), Pearson correlation: high degree of colocalization

## C#CCCC1(CCn2cc(C(=O)C(Nc3cc(OC)cc(OCCOC)c3)c3ccc(Cl)cc3OC)c3cc(OC(F)(F)F)ccc32)N=N1 (stereo not shown) [Compound B]
DENV NS4B and NS3
  colocalization of labeled PAL compound with NS4B (and NS3), Pearson correlation: significantly lower colocalization

## C[C@@H]1C[C@@H]([C@H](O)CC2CC(=O)NC(=O)C2)C(=O)[C@@H](C)C1 [CHX, cycloheximide]
[3]
  RNA translation (puromycin incorporation): completely arrested RNA translation

## COc1cc(N[C@H](C(=O)c2c[nH]c3ccc(OC(F)(F)F)cc23)c2ccc(Cl)cc2OC)cc(S(C)(=O)=O)c1 [Mosnodenvir]
DENV-1 or DENV-2
  efficacy against infection with either DENV-1 or DENV-2: highly effective
